Tests used:
Type in all cases: cell-based
[1] = molecular target: T1, EGFR V3 (Homo sapiens, UniProt P00533, DELINS30-297G); test: BaF3 cell proliferation assay, EGFR V3 (Table A); details: potency code, 3 days, CellTiterGlo, read-out: EGFR V3 (Activity for Inhibiting EGFR)
T1 construct: expressed in transfected cells; host or cells: BaF3 (murine pro-B), retroviral pMXs-IRES-Blasticidin
Procedure: (§1) Retroviral Production: EGFR mutants were subcloned into pMXs-IRES-Blasticidin (RTV-016, Cell Biolabs, San Diego, Calif.). Retroviral expression vector retrovirus was produced by transient transfection of HEK 293T cells with the retroviral EGFR mutant expression vector pMXs-IRES-Blasticidin (RTV-016, Cell Biolabs), pCMV-Gag-Pol vector and pCMV-VSV-G-Envelope vector. Briefly, HEK 293T/17 cells were plated in 100 mm collagen coated plate (354450, Corning Life Sciences, Tewksbury, Mass.) (4×10^5 per plate) and incubated overnight. The next day, retroviral plasmids (3 μg of EGFR mutant, 1.0 μg of pCMV-Gag-Pol and 0.5 μg pCMV-VSV-G) were mixed in 500 μl of Optimem (31985, Life Technologies). The mixture was incubated at room temperature for 5 min and then added to Optimem containing transfection reagent Lipofectamine (11668, Invitrogen) and incubated for 20 minutes. Mixture was then added dropwise to HEK 293T cells. The next day the medium was replaced with fresh culture medium and retrovirus was harvested @ 24 and 48 hrs.
(§2) Generation of EGFR mutant stable cell lines: BaF3 cells (1.5E5 cells) were infected with 1 ml of viral supernatant supplemented with 8 μg/ml polybrene by centrifuging for 30 min at 1000 rpm. Cells were placed in a 37° C. incubator overnight. Cells were then spun for 5 minutes to pellet the cells. Supernatant was removed and cells re-infected a fresh 1 ml of viral supernatant supplemented with 8 μg/ml polybrene by centrifuging for 30 min at 1000 rpm. Cells were placed in 37° C. incubator overnight. […] After 48 hours cells were selected for retroviral infection in 10 μg/ml Blasticidin for one week. Blasticidin resistant populations were washed twice in phosphate buffered saline before plating in media lacking IL-3 to select for IL-3 independent growth.
(§3) EC50 values were determined with the same application.

[2] = molecular target: T2, HER2 YVMA (Homo sapiens, UniProt P04626, INS775YVMA); test: BaF3 cell proliferation assay, HER2 YVMA (Table B); details: potency code, 3 days, CellTiterGlo, read-out: HER2 YVMA (Activity for Inhibiting HER2)
T2 construct: expressed in transfected cells; host or cells: BaF3 (murine pro-B)
T2 sequence (P04626 with tags, fused parts or gaps INS775YVMA): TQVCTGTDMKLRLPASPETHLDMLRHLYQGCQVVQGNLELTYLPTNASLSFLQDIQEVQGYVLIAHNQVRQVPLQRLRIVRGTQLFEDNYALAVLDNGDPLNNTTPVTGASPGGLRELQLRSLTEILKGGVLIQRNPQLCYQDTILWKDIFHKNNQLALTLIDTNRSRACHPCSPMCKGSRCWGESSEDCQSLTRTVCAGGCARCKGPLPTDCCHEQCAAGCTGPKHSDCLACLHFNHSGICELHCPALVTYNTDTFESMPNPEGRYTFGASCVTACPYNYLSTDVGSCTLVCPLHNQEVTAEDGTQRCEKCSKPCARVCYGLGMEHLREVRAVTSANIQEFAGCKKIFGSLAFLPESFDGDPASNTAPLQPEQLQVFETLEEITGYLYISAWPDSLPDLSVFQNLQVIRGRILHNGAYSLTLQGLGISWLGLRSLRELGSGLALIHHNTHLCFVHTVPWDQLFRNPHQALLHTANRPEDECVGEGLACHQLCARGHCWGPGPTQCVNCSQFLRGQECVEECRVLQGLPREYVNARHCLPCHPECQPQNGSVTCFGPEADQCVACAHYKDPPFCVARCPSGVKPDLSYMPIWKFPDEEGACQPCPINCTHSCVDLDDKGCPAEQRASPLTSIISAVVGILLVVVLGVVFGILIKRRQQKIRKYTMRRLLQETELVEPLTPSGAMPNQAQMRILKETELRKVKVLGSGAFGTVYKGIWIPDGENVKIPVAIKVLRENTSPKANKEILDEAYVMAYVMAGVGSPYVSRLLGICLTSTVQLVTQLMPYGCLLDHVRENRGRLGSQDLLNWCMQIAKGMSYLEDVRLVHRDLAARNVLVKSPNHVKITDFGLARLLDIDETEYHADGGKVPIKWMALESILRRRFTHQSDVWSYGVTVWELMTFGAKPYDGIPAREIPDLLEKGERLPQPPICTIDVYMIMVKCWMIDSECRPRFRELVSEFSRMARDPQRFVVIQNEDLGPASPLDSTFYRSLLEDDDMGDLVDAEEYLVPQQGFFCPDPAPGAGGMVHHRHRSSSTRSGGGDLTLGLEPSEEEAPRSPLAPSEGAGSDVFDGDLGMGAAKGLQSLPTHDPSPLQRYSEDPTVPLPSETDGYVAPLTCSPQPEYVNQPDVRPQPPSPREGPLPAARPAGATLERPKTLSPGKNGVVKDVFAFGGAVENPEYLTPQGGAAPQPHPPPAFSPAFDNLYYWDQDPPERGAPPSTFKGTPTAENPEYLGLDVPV

[3] = molecular target: T3, HER2 S310F (Homo sapiens, UniProt P04626, S310F); test: Activity for inhibiting HER2 (Table B), HER2 S310F; details: read-out: HER2 S310F, potency code (IC50)
T3 construct: expressed in transfected cells; host or cells: BaF3 (murine pro-B)
T3 sequence (P04626 23-1255 S310F): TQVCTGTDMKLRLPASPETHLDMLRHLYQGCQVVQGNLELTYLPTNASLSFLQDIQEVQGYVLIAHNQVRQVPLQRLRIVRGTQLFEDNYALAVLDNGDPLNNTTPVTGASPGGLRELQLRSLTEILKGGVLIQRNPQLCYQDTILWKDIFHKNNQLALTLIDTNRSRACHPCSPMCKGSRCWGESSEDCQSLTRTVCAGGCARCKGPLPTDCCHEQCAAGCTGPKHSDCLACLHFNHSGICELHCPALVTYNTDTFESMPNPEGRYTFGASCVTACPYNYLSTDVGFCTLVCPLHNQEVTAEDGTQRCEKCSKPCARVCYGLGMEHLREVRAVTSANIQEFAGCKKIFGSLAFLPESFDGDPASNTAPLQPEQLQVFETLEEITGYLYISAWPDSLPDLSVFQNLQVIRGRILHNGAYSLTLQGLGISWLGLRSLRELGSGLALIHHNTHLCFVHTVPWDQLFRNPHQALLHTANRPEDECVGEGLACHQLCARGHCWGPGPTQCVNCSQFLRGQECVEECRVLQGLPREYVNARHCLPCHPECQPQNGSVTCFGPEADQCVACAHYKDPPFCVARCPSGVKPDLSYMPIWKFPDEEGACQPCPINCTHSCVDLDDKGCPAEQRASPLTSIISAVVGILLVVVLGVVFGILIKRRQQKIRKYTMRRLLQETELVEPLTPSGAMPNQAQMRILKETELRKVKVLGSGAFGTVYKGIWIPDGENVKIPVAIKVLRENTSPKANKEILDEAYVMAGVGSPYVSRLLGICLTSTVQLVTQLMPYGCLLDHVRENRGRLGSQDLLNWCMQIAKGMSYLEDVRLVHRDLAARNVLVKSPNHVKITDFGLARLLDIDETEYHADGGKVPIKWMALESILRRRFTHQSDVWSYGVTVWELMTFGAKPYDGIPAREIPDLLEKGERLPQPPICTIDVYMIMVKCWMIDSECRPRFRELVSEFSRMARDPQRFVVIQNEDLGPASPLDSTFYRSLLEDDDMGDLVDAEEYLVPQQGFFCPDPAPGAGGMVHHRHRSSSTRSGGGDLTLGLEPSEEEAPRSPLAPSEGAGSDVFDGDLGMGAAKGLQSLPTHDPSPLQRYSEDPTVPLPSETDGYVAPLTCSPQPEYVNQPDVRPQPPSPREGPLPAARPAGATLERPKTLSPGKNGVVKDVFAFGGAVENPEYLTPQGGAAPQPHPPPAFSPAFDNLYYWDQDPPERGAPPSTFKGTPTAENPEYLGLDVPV
Procedure: as §3

[4] = molecular target: T4, EGFR WT (Homo sapiens, UniProt P00533); test: Activity for inhibiting EGFR (Table A), EGFR WT; details: read-out: EGFR WT, potency code (IC50)
T4 sequence (P00533 25-1210 N540K): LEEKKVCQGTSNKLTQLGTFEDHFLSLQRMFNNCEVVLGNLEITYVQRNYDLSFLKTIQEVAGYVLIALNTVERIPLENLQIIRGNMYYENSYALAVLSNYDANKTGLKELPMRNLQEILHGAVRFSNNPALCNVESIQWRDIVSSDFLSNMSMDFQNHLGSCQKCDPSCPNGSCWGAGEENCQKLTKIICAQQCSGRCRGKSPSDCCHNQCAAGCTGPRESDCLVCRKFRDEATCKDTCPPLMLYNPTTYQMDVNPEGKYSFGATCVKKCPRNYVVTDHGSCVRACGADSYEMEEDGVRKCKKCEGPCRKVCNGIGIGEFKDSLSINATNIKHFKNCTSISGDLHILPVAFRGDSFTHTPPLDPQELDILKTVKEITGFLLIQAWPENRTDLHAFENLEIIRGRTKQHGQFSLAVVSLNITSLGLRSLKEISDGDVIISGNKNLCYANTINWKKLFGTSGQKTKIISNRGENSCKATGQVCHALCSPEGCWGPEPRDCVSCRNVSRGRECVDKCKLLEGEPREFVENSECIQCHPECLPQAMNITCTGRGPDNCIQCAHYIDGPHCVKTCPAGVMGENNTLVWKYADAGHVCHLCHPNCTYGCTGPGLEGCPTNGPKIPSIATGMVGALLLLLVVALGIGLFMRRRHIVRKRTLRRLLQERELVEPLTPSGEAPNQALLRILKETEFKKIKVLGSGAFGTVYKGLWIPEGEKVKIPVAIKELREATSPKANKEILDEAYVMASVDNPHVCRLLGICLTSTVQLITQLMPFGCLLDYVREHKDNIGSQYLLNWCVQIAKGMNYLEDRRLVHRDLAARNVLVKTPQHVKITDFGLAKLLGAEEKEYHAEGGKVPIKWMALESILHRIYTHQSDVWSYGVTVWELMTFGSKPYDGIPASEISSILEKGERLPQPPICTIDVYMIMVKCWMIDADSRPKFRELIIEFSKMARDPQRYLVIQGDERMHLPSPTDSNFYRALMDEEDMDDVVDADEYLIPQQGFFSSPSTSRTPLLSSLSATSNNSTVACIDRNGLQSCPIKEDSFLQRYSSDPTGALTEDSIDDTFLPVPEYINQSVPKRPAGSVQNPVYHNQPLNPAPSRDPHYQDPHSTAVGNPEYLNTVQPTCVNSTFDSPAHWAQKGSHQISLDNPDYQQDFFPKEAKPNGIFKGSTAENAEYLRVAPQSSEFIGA

[5] = molecular target: T3, HER2 S310F; test: BaF3 cell proliferation assay, HER2 S310F (Table B); details: potency code, 3 days, CellTiterGlo, read-out: HER2 S310F (Activity for Inhibiting HER2)
[6] = molecular target: T2, HER2 YVMA; test: Activity for inhibiting HER2 (Table B), HER2 YVMA; details: read-out: HER2 YVMA, potency code (IC50)
Procedure: as §3

[7] = molecular target: T4, EGFR WT; test: BaF3 cell proliferation assay, EGFR WT (Table A); details: potency code, 3 days, CellTiterGlo, read-out: EGFR WT (Activity for Inhibiting EGFR)
Procedure: as §1, §2, §3

[8] = molecular target: T1, EGFR V3; test: Activity for inhibiting EGFR (Table A), EGFR V3 (EGFR-Viii); details: read-out: EGFR V3, potency code (IC50)

T1 sequence (P00533 with tags, fused parts or gaps DELINS30-297G): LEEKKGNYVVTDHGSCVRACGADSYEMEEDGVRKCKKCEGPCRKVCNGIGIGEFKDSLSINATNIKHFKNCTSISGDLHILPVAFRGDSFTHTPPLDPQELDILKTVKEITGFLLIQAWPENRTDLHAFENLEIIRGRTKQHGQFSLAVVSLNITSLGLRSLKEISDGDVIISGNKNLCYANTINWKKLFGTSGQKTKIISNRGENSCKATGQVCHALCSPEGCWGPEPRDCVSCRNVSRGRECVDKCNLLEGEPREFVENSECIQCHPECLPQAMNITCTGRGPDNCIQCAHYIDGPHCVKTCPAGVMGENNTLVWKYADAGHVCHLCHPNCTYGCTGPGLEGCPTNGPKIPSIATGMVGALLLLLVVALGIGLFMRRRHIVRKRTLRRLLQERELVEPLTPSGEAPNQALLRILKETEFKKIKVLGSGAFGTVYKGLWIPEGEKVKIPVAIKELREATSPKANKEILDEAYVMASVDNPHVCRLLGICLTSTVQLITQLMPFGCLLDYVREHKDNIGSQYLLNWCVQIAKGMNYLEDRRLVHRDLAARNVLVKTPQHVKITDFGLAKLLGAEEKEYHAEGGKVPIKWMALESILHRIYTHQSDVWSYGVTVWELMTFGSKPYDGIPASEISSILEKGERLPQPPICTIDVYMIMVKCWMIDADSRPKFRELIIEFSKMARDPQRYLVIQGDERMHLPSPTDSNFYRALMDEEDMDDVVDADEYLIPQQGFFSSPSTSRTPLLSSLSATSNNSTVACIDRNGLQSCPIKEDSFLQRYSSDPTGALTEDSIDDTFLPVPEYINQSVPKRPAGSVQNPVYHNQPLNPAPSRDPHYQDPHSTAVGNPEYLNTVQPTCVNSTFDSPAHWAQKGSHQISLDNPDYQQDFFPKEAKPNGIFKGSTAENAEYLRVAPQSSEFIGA

Structure (SMILES)	IC50 [1] [nM]	IC50 [2] [nM]	IC50 [3] [nM]	IC50 [4] [nM]	IC50 [5] [nM]	IC50 [6] [nM]	IC50 [7] [nM]	IC50 [8] [nM]
C=CC(=O)Nc1cc2c(Nc3ccc(OCc4ccccn4)c(Cl)c3)ncnc2cc1O[C@H]1CCCN(C)CC1 [compound 99, N-(4-((3-chloro-4-(pyridin-2-ylmethoxy)phenyl)amino)-7-((1-methylazepan-4-yl)oxy)quinazolin-6-yl)acrylamide]	20 to 30	200 to 300	30 to 50	200 to 300	30 to 50	200 to 300	200 to 300	20 to 30
C=CC(=O)Nc1cc2c(Nc3ccc(Oc4ccc(C)nc4)c(C)c3)ncnc2cc1C#CC(C)(C)N(C)C [compound 82]	300 to 500	500 to 1000	50 to 100	500 to 1000	50 to 100	500 to 1000	500 to 1000	300 to 500
C=CC(=O)Nc1cc2c(Nc3ccc(OCc4ccccn4)c(Cl)c3)ncnc2cc1C#C[C@@H]1CCCN1C [compound 87, N-(4-((3-chloro-4-(pyridin-2-ylmethoxy)phenyl)amino)-7-((1-methylpyrrolidin-2-yl)ethynyl)quinazolin-6-yl)acrylamide]	100 to 200	200 to 300	30 to 50	> 1000	30 to 50	200 to 300	> 1000	100 to 200
C=CC(=O)Nc1cc2c(Nc3ccc(OCc4ccccn4)c(Cl)c3)ncnc2cc1C#CC1CC2(C1)CN(C)C2 [compound 124, N-(4-((3-chloro-4-(pyridin-2-ylmethoxy)phenyl)amino)-7-((2-methyl-2-azaspiro[3.3]heptan-6-yl)ethynyl)quinazolin-6-yl)acrylamide]	30 to 50	100 to 200	30 to 50	500 to 1000	30 to 50	100 to 200	500 to 1000	30 to 50
C=CC(=O)Nc1cc2c(Nc3ccc(OCc4ccccn4)c(Cl)c3)ncnc2cc1C#C[C@@H]1[C@H]2CN(C3COC3)C[C@@H]12 [compound 113, N-(4-((3-chloro-4-(pyridin-2-ylmethoxy)phenyl)amino)-7-(((1R,5S,6s)-3-(oxetan-3-yl)-3-azabicyclo[3.1.0]hexan-6-yl)ethynyl)quinazolin-6-yl)acrylamide]	50 to 100	100 to 200	30 to 50	500 to 1000	30 to 50	100 to 200	500 to 1000	50 to 100
C=CC(=O)Nc1cc2c(Nc3ccc(OCc4cnccn4)c(Cl)c3)ncnc2cc1OCCN1CC2CCC(C1)O2 [compound 175]	30 to 50	100 to 200	20 to 30	> 1000	20 to 30	100 to 200	> 1000	30 to 50
C=CC(=O)Nc1cc2c(Nc3ccc(OCc4cccnn4)c(Cl)c3)ncnc2cc1OCCN1CCN(C)CC1 [compound 172]	100 to 200	300 to 500	50 to 100	500 to 1000	50 to 100	300 to 500	500 to 1000	100 to 200
C=CC(=O)Nc1cc2c(Nc3ccc(OCc4ccccn4)c(Cl)c3)ncnc2cc1OCCC1COCCN1C (centres unmarked) [compound 120, N-(4-((3-chloro-4-(pyridin-2-ylmethoxy)phenyl)amino)-7-(2-(4-methylmorpholin-3-yl)ethoxy)quinazolin-6-yl)acrylamide]	30 to 50	50 to 100	10 to 20	> 1000	10 to 20	50 to 100	> 1000	30 to 50
C=C(F)C(=O)Nc1cc2c(Nc3ccc(OCc4ccccn4)c(Cl)c3)ncnc2cc1OCCN1CCOCC1 [compound 109, N-(4-((3-chloro-4-(pyridin-2-ylmethoxy)phenyl)amino)-7-(2-morpholinoethoxy)quinazolin-6-yl)-2-fluoroacrylamide]	10 to 20	50 to 100	10 to 20	30 to 50	10 to 20	50 to 100	30 to 50	10 to 20
C=CC(=O)Nc1cc2c(Nc3ccc(OCc4cccnn4)c(Cl)c3)ncnc2cc1OCCCN1CC(OC)C1 [compound 177]	30 to 50	50 to 100	10 to 20	500 to 1000	10 to 20	50 to 100	500 to 1000	30 to 50

Next, values leading:

IC50 [1] [nM]	IC50 [2] [nM]	IC50 [3] [nM]	IC50 [4] [nM]	IC50 [5] [nM]	IC50 [6] [nM]	IC50 [7] [nM]	IC50 [8] [nM]	Structure (SMILES)
30 to 50	100 to 200	30 to 50	> 1000	30 to 50	100 to 200	> 1000	30 to 50	C=CC(=O)Nc1cc2c(Nc3ccc(OCc4cnccn4)c(Cl)c3)ncnc2cc1OCCN1CC(OC)C1 [compound 178]
100 to 200	100 to 200	30 to 50	100 to 200	30 to 50	100 to 200	100 to 200	100 to 200	CC#CC(=O)Nc1cc2c(Nc3cc(Cl)c(OCc4cccc(F)c4)cc3F)ncnc2cc1OCCCN1CC(OC)C1 [compound 136, N-(4-((5-chloro-2-fluoro-4-((3-fluorobenzyl)oxy)phenyl)amino)-7-(3-(3-methoxyazetidin-1-yl)propoxy)quinazolin-6-yl)but-2-ynamide]
50 to 100	30 to 50	10 to 20	100 to 200	10 to 20	30 to 50	100 to 200	50 to 100	CC#CC(=O)Nc1cc2c(Nc3cc(Cl)c(OCc4cccc(F)c4)cc3F)ncnc2cc1OCCN1CCOCC1 [compound 149, N-(4-((5-chloro-2-fluoro-4-((3-fluorobenzyl)oxy)phenyl)amino)-7-(2-morpholinoethoxy)quinazolin-6-yl)but-2-ynamide]
20 to 30	30 to 50	5 to 10	100 to 200	5 to 10	30 to 50	100 to 200	20 to 30	C=CC(=O)Nc1cc2c(Nc3ccc(OCc4ccccn4)c(Cl)c3)ncnc2cc1OCC[C@H]1CCCN1C [compound 95, N-(4-((3-chloro-4-(pyridin-2-ylmethoxy)phenyl)amino)-7-(2-(1-methylpyrrolidin-2-yl)ethoxy)quinazolin-6-yl)acrylamide]
100 to 200	100 to 200	30 to 50	500 to 1000	30 to 50	100 to 200	500 to 1000	100 to 200	C=CC(=O)Nc1cc2c(Nc3ccc(OCc4cccc(C)n4)c(Cl)c3)ncnc2cc1OCCCN1CCOCC1 [compound 129]
50 to 100	100 to 200	30 to 50	> 1000	30 to 50	100 to 200	> 1000	50 to 100	C=CC(=O)Nc1cc2c(Nc3ccc(OCc4ccncn4)c(Cl)c3)ncnc2cc1OCCCN1CCOCC1 [compound 163]
50 to 100	200 to 300	30 to 50	> 1000	30 to 50	200 to 300	> 1000	50 to 100	C=CC(=O)Nc1cc2c(Nc3ccc(OCc4cccc(F)n4)c(Cl)c3)ncnc2cc1OCCN1CC2CCC(C1)O2 [compound 156]
100 to 200	100 to 200	30 to 50	500 to 1000	30 to 50	100 to 200	500 to 1000	100 to 200	C=CC(=O)Nc1cc2c(Nc3ccc(OCc4cccc(F)c4)c(Cl)c3)ncnc2cc1OCCN1CC2CCC(C1)O2 [compound 139]
300 to 500	> 1000	300 to 500	> 1000	300 to 500	> 1000	> 1000	300 to 500	C=CC(=O)Nc1cc2c(Nc3ccc(OCc4ccccn4)cn3)ncnc2cc1OC1CCN(C)C1 (centres unmarked) [compound 61]

From patent US11034672B1, “Tyrosine kinase inhibitor compositions, methods of making and methods of use” (Black Diamond Therapeutics, Inc., priority 2018, dated 2021)
